Assay results: paper PMC9856672, “SGC-CAMKK2-1: A Chemical Probe for CAMKK2” (Cells, 2023)

Key:
CAMKK2 = CAMKK2 (Homo sapiens, UniProt Q96RR4); set-up: purified recombinant CAMKK2 (100 pM) was incubated in assay buffer; method as in earlier work; conditions: reported CAMKK2 inhibitors; ref 47 (Price et al.); cited from earlier work
[1] = Single dose IP pharmacokinetic study in mice; type: in vivo, CD-1 mice; conditions: mouse, 10 mg/kg IP, plasma at 0.5, 1, 3, 8 h
Method: CD-1 mice with weights 23–25 g were purchased from Charles River Laboratories.
The animal experiments were performed at Alliance Pharma (Malvern, PA, USA) in accordance with the guide for the care and use of laboratory animals. Alliance Pharma is accredited by the Association for Assessment and Accreditation of Laboratory Animal Care (AAALAC).
The test compounds were dissolved in DMSO and then diluted to the appropriate concentration with the vehicle. For formulation we targeted the minimal amount of DMSO that could be used in combination with a formulation composed of 0.5% HPMC/0.2% Polysorbate 80. […] Blood was collected at t = 0.5, 1, 3, and 8 h and immediately spun for 3 min, the plasma was collected, and compound levels were quantified with HPLC/MS. The raw data are available in the Supplemental Information.
With the probe molecule having favorable selectivity and potency in vitro and in a cellular context, we next wanted to determine its suitability for in vivo experiments. SGC-CAMKK2-1 (5) was progressed to a single dose mouse intraperitoneal (I.P) experiment.

[2] = system: p-AMPK(Thr172) in C4-2 cells; assay: Western blot of p-AMPK(Thr172) in C4-2 prostate cancer cells; type: cell-based; conditions: C4-2, 24 h, 24 h treatment, three individual experiments, read-out: IC50 for decrease of p-AMPK(Thr172) normalized to total AMPK
Method: C4-2 cells were plated in 6-well plates in IMEM medium containing 0.5% FBS. After 72 h, the cells were then treated with the compounds for 24 h before the media was aspirated and cells were washed twice in ice-cold PBS. Cells were lysed using RIPA buffer containing phosphatase and protease inhibitor cocktail while rotating for 30 min at 4 °C. In each lane, 30 μg/well of protein lysate was loaded into a 10% SDS-PAGE gel and run for 1 h and 30 min. Gels were then transferred overnight in a TRIS-glycine/methanol transfer buffer onto a PVDF membrane at 4 °C. Membranes were blocked, incubated with primary overnight at 4 °C, washed, incubated with secondary at room temperature for 1 h, washed, and then developed on an Azure Biosystems C-600 imager. Densitometry was performed using ImageJ. Total-AMPK was normalized to GAPDH and then p-AMPK was normalized to normalized total-AMPK. Normalized p-AMPK was used to calculate IC50 in GraphPad Prism 9.5.0. Primary antibodies used were from Cell Signaling (Danvers, MA, USA; Phospho-AMPKα (Thr172) (40H9) Rabbit mAb: Cat#: 2535; AMPKα (D5A2) Rabbit mAb Cat#: 5831), BD Bioscience (Franklin Lakes, NJ, USA; CAMKK2 mouse mAb Cat# 610544), and Sigma (St. Louis, MO, USA; GAPDH rabbit pAb: Cat# G9545). Secondary antibody (Goat Anti-Rabbit IgG (H + L)-HRP Conjugate; Cat#:1706515) was from Bio-Rad Laboratories (Hercules, CA, USA).
In this experiment, IC50 was calculated via quantifying changes in p-AMPK(Thr172) normalized to total AMPK levels.

SMILES	pIC50 (CAMKK2) (CAMKK2)	plasma concentration / in vivo PK (in words) [1]	IC50 [2]
CN(C)Cc1ccc(-c2cc3c(-c4ccc(C(N)=O)cc4)ccnc3[nH]2)cc1 [Compound 3]	8.5		
O=C(O)c1ccc(-c2ccnc(Nc3cccc(-c4ccccc4)c3)n2)cc1 [Compound 4]	8.1		
O=C(O)c1ccc2c3c1cccc3c(=O)n1c3ccccc3nc21 [STO-609, reference compound]		considerably higher plasma concentrations than SGC-CAMKK2-1	10.7 µM
